Test results as given in ChEMBL document CHEMBL1201862, “PubChem BioAssay data set” (2004).
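Five concentrations, 48 hours, 96-well plates. GI50 marks 50% less growth.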 Activity calls are given as the source filed them. Cut-off read from the data, not from the text of the source: active = GI50 up to about 1.1 µM and inactive = higher.

Experiments:
Assay in all cases: growth of human tumour cells (NCI), 48 h
786-0 = test system: 786-0
A498 = test system: A498
A549 = test system: A549
ACHN = test system: ACHN
CAKI-1 = test system: CAKI-1
CCRF-CEM = test system: CCRF-CEM
COLO 205 = test system: COLO 205
DLD-1 = test system: DLD-1
DMS-114 = test system: DMS-114
DMS-273 = test system: DMS-273
EKVX = test system: EKVX
HCC 2998 = test system: HCC 2998
HCT-116 = test system: HCT-116
HCT-15 = test system: HCT-15
HL-60 = test system: HL-60
HOP-62 = test system: HOP-62
HT-29 = test system: HT-29
IGROV-1 = test system: IGROV-1
K562 = test system: K562
KM-20L2 = test system: KM-20L2
KM12 = test system: KM12
LOX IMVI = test system: LOX IMVI
LXFL 529 = test system: LXFL 529
M14 = test system: M14
M19-MEL = test system: M19-MEL
MOLT-4 = test system: MOLT-4
Malme-3M = test system: Malme-3M
NCI-H226 = test system: NCI-H226
NCI-H23 = test system: NCI-H23
NCI-H460 = test system: NCI-H460
NCI-H522 = test system: NCI-H522
OVCAR-3 = test system: OVCAR-3
OVCAR-5 = test system: OVCAR-5
OVCAR-8 = test system: OVCAR-8
RPMI-8226 = test system: RPMI-8226
RXF 393 = test system: RXF 393
SF-268 = test system: SF-268
SF-295 = test system: SF-295
SF-539 = test system: SF-539
SK-MEL-28 = test system: SK-MEL-28
SK-MEL-2 = test system: SK-MEL-2
SK-MEL-5 = test system: SK-MEL-5
SK-OV-3 = test system: SK-OV-3
SN12C = test system: SN12C
SNB-19 = test system: SNB-19
SNB-75 = test system: SNB-75
SNB-78 = test system: SNB-78
SW-620 = test system: SW-620
TK-10 = test system: TK-10
U-251 = test system: U-251
UACC-257 = test system: UACC-257
UACC-62 = test system: UACC-62
UO-31 = test system: UO-31
XF498 = test system: XF498

Compound: COC(=O)[C@@H]1c2[nH]c3ccccc3c2C[C@@H]2c3ccccc3NC(=O)[C@@H]21
- GI50 (786-0): 42.8 µM (inactive)
- GI50 (A498): > 100 µM (inactive)
- GI50 (A549): 38.8 µM (inactive)
- GI50 (ACHN): > 100 µM (inactive)
- GI50 (CAKI-1): > 73.6 µM (inactive)
- GI50 (CCRF-CEM): > 77.6 µM (inactive)
- GI50 (COLO 205): > 82.2 µM (inactive)
- GI50 (DLD-1): > 100 µM (inactive)
- GI50 (DMS-114): > 100 µM (inactive)
- GI50 (DMS-273): > 57.5 µM (inactive)
- GI50 (EKVX): 53.5 µM (inactive)
- GI50 (HCC 2998): > 100 µM (inactive)
- GI50 (HCT-116): 37.3 µM (inactive)
- GI50 (HCT-15): > 100 µM
- GI50 (HL-60): > 100 µM (inactive)
- GI50 (HOP-62): 14.3 µM (inactive)
- GI50 (HT-29): > 100 µM (inactive)
- GI50 (IGROV-1): > 100 µM (inactive)
- GI50 (K562): > 100 µM (inactive)
- GI50 (KM-20L2): > 100 µM (inactive)
- GI50 (KM12): > 100 µM (inactive)
- GI50 (LOX IMVI): 31 µM (inactive)
- GI50 (LXFL 529): > 65.2 µM (inactive)
- GI50 (M14): > 78.5 µM (inactive)
- GI50 (M19-MEL): > 89.3 µM (inactive)
- GI50 (MOLT-4): > 100 µM (inactive)
- GI50 (Malme-3M): > 46.5 µM (inactive)
- GI50 (NCI-H226): 18.3 µM (inactive)
- GI50 (NCI-H23): > 90.8 µM (inactive)
- GI50 (NCI-H460): > 100 µM (inactive)
- GI50 (NCI-H522): > 100 µM (inactive)
- GI50 (OVCAR-3): > 53.6 µM (inactive)
- GI50 (OVCAR-5): > 100 µM (inactive)
- GI50 (OVCAR-8): 21.3 µM (inactive)
- GI50 (RPMI-8226): > 49.1 µM (inactive)
- GI50 (RXF 393): 26.2 µM (inactive)
- GI50 (SF-268): > 31.6 µM (inactive)
- GI50 (SF-295): 15.7 µM (inactive)
- GI50 (SF-539): 43.7 µM (inactive)
- GI50 (SK-MEL-28): > 91 µM (inactive)
- GI50 (SK-MEL-2): > 62.8 µM (inactive)
- GI50 (SK-MEL-5): > 54 µM (inactive)
- GI50 (SK-OV-3): 20.7 µM (inactive)
- GI50 (SN12C): > 78.3 µM (inactive)
- GI50 (SNB-19): > 80.2 µM (inactive)
- GI50 (SNB-75): 12.7 µM (inactive)
- GI50 (SNB-78): > 76.4 µM (inactive)
- GI50 (SW-620): > 70.3 µM (inactive)
- GI50 (TK-10): > 80.4 µM (inactive)
- GI50 (U-251): 15.4 µM (inactive)
- GI50 (UACC-257): > 85.1 µM (inactive)
- GI50 (UACC-62): > 75.7 µM (inactive)
- GI50 (UO-31): > 100 µM (inactive)
- GI50 (XF498): > 100 µM (inactive)
